From PubChem BioAssay AID2060486 (Molecular Pharmacology Branch, DTP, NCI, 2025)

Tested on: IGROV1 complex spheroids (HUVEC, MSC), viability % test/control
Assay: Anticancer human tumor IGROV1 cell line growth inhibition [GQUAD];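 also: spheroids exposed to compounds for 7 days before readout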
Conditions: for IC50: curve of first compound; for viability, T/C: stronger effect = lower value
Description: DNA G-quadruplex Stabilizer Agents in Combinations in Complex Spheroids
A high-throughput screen of multi-cell type tumor spheroids was designed to identify active combinations of DNA G-quadruplex stabilizer agents and targeted small molecules. Complex spheroids include a stromal component modeled by human endothelial cells (HUVEC) and fibroblasts modeled by human mesenchymal stem cells (MSCs). The concentration ranges selected for each drug and investigational agent were based upon clinically achievable concentrations if the clinical Cmax of the agent was known.
Compounds. The drugs and investigational agents: pidnarulex (CX-5461; NSC782164), APTO-253 (NSC789042), BRACO-19 (NSC847499), peposertib (NSC802822), ceralasertib (NSC780249), elimusertib (NSC800525), camonsertib (NSC841442), AZD-1390 (NSC803789), olaparib (NSC753686), talazoparib (NSC767125), ART-558 (NSC835418), sotorasib (NSC818433), MRTX-1133 (NSC836407), SN-38 (NSC673596), topotecan (NSC609699), etoposide (NSC141540), doxorubicin (NSC123127), gemcitabine (NSC613327), 5-fluorouracil (NSC19893), paclitaxel (NSC125973), vemurafenib (NSC761431), panobinostat (NSC761190), R-306465 (JNJ-16241199; NSC773264), adavosertib (NSC754352), TP-3654 (NSC805149), carboplatin (NSC241240), KSQ-4279 (NSC840948), and staurosporine (NSC755774) were obtained from the National Cancer Institute (NCI) Developmental Therapeutics Program Chemical Repository (34). The FDA-approved anticancer drug set is available from the NCI Developmental Therapeutics Program. […] The stock solutions were prepared in dimethyl sulfoxide (DMSO, Sigma-Aldrich, St. Louis, MO, cat. D2650) at 800-fold the tested concentration and stored at -70 degrees C prior to their use. All drugs and investigational agents were tested over a range starting from a high concentration at or near the clinical Cmax and decreasing in half-log increments. If the clinical Cmax for an agent had not been determined, the highest concentration tested was 10 microM.
2.3 Cell Culture. All cells were maintained in an incubator at 37 degrees C and 5% CO2 with 95% humidity. The PDC lines were cultured according to standard operating procedures established by the NCI PDMR. All PDCs were thawed and cultured in Matrigel-coated flasks prepared with a working solution of 1X Ham's F-12 nutrient mix, without supplementation (Invitrogen, cat. 11765054), 100 U/mL penicillin-streptomycin (Invitrogen, cat. 15140122), and 2.5% Matrigel (Corning Inc., cat. 354248) for the first three passages. The 857933-349-R-J2-PDC line was cultured in 6C/Colon 1B media, which includes advanced DMEM/F-12 (Thermo Fisher Scientific, cat. 12634028), 10 mM HEPES (Thermo Fisher Scientific, cat. 15630080), 1X GlutaMAX supplement (Thermo Fisher Scientific, cat. 35050061), 0.1 mg/mL primocin (InvivoGen, cat. ant-pm-2), 10% defined fetal bovine serum, heat inactivated (HyClone Laboratories Inc., cat. SH30070.03HI), 50% L-WRN conditioned media (ATCC, cat. CRL-3276), 1.25 mM N-Acetyl-L-cysteine (Sigma-Aldrich, cat. A9165), 10 mM nicotinamide (Sigma-Aldrich, cat. N0636), 1X B-27 supplement (Thermo Fisher Scientific, cat. 17504044), 1X N-2 supplement (Thermo Fisher Scientific, cat. 17502048), 10 microM Y-27632 dihydrochloride (Tocris Bioscience, cat. 1254), and 50 ng/mL human EGF recombinant protein (Thermo Fisher Scientific, cat. PHG0311). The 485176-168-R4-J1-PDC line was cultured in Panc media, which includes all 6C/Colon 1B media components plus 100 ng/mL human FGF-10 (Thermo Fisher Scientific, cat. 100-26), 500 nM SB-431542 (Selleckchem, cat. S1067), and gastrin (Tocris, cat. 3006).
[…]

Compound: CC(C)n1c(=O)n(C)c2cnc3cc(F)c(-c4ccc(OCCCN5CCCCC5)nc4)cc3c21 + CN(C)c1ccc(Nc2c3ccc(NC(=O)CCN4CCCC4)cc3nc3cc(NC(=O)CCN4CCCC4)ccc23)cc1
- IC50 (second compound 0.0316 µM): 3.96 µM
- IC50 (second compound 0.1 µM): 3.78 µM
- IC50 (second compound 0.316 µM): 4.03 µM
- IC50 (second compound 1 µM): 1.5 µM
- IC50 (second compound 3.16 µM): < 0.0316 µM
- IC50 (second compound 10 µM): < 0.0316 µM
- viability, T/C (second compound 0.0316 µM, first compound 0.0316 µM): 91.8%
- viability, T/C (second compound 0.0316 µM, first compound 0.1 µM): 70.1%
- viability, T/C (second compound 0.0316 µM, first compound 0.316 µM): 90.8%
- viability, T/C (second compound 0.0316 µM, first compound 1 µM): 72.2%
- viability, T/C (second compound 0.0316 µM, first compound 3.16 µM): 59.2%
- viability, T/C (second compound 0.0316 µM, first compound 10 µM): 15.5%
- viability, T/C (second compound 0.1 µM, first compound 0.0316 µM): 93.3%
- viability, T/C (second compound 0.1 µM, first compound 0.1 µM): 59.2%
- viability, T/C (second compound 0.1 µM, first compound 0.316 µM): 87.3%
- viability, T/C (second compound 0.1 µM, first compound 1 µM): 72%
- viability, T/C (second compound 0.1 µM, first compound 3.16 µM): 55.2%
- viability, T/C (second compound 0.1 µM, first compound 10 µM): 18%
- viability, T/C (second compound 0.316 µM, first compound 0.0316 µM): 86.1%
- viability, T/C (second compound 0.316 µM, first compound 0.1 µM): 69.6%
- viability, T/C (second compound 0.316 µM, first compound 0.316 µM): 83.4%
- viability, T/C (second compound 0.316 µM, first compound 1 µM): 74.8%
- viability, T/C (second compound 0.316 µM, first compound 3.16 µM): 58.9%
- viability, T/C (second compound 0.316 µM, first compound 10 µM): 16.7%
- viability, T/C (second compound 1 µM, first compound 0.0316 µM): 54.6%
- viability, T/C (second compound 1 µM, first compound 0.1 µM): 53.1%
- viability, T/C (second compound 1 µM, first compound 0.316 µM): 58.9%
- viability, T/C (second compound 1 µM, first compound 1 µM): 55.6%
- viability, T/C (second compound 1 µM, first compound 3.16 µM): 40%
- viability, T/C (second compound 1 µM, first compound 10 µM): 13%
- viability, T/C (second compound 3.16 µM, first compound 0.0316 µM): 49.7%
- viability, T/C (second compound 3.16 µM, first compound 0.1 µM): 39.4%
- viability, T/C (second compound 3.16 µM, first compound 0.316 µM): 27%
- viability, T/C (second compound 3.16 µM, first compound 1 µM): 21.9%
- viability, T/C (second compound 3.16 µM, first compound 3.16 µM): 19.8%
- viability, T/C (second compound 3.16 µM, first compound 10 µM): 10.7%
- viability, T/C (second compound 10 µM, first compound 0.0316 µM): 18.3%
- viability, T/C (second compound 10 µM, first compound 0.1 µM): 18.8%
- viability, T/C (second compound 10 µM, first compound 0.316 µM): 11.4%
- viability, T/C (second compound 10 µM, first compound 1 µM): 10.5%
- viability, T/C (second compound 10 µM, first compound 3.16 µM): 7.56%
- viability, T/C (second compound 10 µM, first compound 10 µM): 3.54%
